In patent US20230287234A1, “EDIBLE COATINGS FOR MAINTAINING FRUIT QUALITY” (The State of Israel, Ministry of Agriculture & Rural …, priority 2020, published 2023):
Entries after “also recorded” stand apart in the source; their conditions may differ.

Tests used:
[1] = tested on: avocado fruit; assay: Chilling injury of coated avocados stored at optimal (5° C.) and sub-optimal (2° C.) temperature; format: in vivo, 'Ettinger' avocado; conditions: 21 d at 2° C. or 5° C., followed by one week at 22° C.; index 0-3
Procedure: Three series of experiments were conducted. In each experiment the coated avocados were compared with uncoated fruits. The first experiment included seven edible coating formulations: carboxymethyl cellulose (CMC) (1% w/v), methylcellulose (MC) (1% w/v), hydroxypropyl methylcellulose (HPMC) (1% w/v), chitosan (1% w/v), alginate (1% w/v), and CMC with stearic acid (CMC+SA) (1% w/v and 0.6% w/v, respectively). The second, and third experiments included five edible coating formulations including phenylalanine, chitosan, CMC+SA, chitosan with phenylalanine, and CMC+SA with phenylalanine. In experiments 1-2 each treatment group included 8 avocados kept in cardboard boxes. In these experiments the fruit were stored for 14 and 12 days respectively at 20° C. (shelf-life conditions). In experiment 3 each treatment group included 14 avocados kept in cardboard boxes. The formulations of the edible coatings were applied to the fruit using paintbrushes. […] Internal browning: Internal browning was determined by cutting each fruit for half, lengthwise, at the end of each experiment, and assessing the visual appearance of the fruit Internal browning. Internal browning was evaluated on a 0-3 scale, in which 0=no internal browning and 3=sever internal browning. […] Blackening and pitting of the skin surface, as well as internal browning, were assessed to measure chilling injury. […]

[2] = tested on: stem-end rot and side rot of avocado fruit; assay: Effect of coatings with and without Phe on avocado decay (stem-end rot, side rot, total decay incidence); format: in vivo, 'Fuerte' avocado; conditions: avocado stored 12 d at 22° C.
Procedure: Three series of experiments were conducted. In each experiment the coated avocados were compared with uncoated fruits. The first experiment included seven edible coating formulations: carboxymethyl cellulose (CMC) (1% w/v), methylcellulose (MC) (1% w/v), hydroxypropyl methylcellulose (HPMC) (1% w/v), chitosan (1% w/v), alginate (1% w/v), and CMC with stearic acid (CMC+SA) (1% w/v and 0.6% w/v, respectively). The second, and third experiments included five edible coating formulations including phenylalanine, chitosan, CMC+SA, chitosan with phenylalanine, and CMC+SA with phenylalanine. In experiments 1-2 each treatment group included 8 avocados kept in cardboard boxes. In these experiments the fruit were stored for 14 and 12 days respectively at 20° C. (shelf-life conditions). In experiment 3 each treatment group included 14 avocados kept in cardboard boxes. […] Determination of decay incidences: Stem end rot (SER) was determined at the end of each experiment by assessing the visual appearance of the fruit stem end. SER was evaluated on a 0-3 scale, in which zero=no SER and three=severe SER. […] Side rot (Alternaria rot and anthracnose) was evaluated at the end of each experiment on a 0-3 scale, in which zero=no side rot and three=severe rot. […] Total decay incidences were determined by calculating the percentage of decayed fruit at the end of each experiment per treatment. […]

SMILES: N[C@@H](Cc1ccccc1)C(=O)O [Phe, phenylalanine]
- chilling injuries symptoms [1]: reduced the appearance of chilling injuries
- decay incidence and severity (stem-end rot and side rot) [2]: some effect on reducing fruit decay incidence and severity; also recorded: increased its resistance to postharvest decay
- decay incidence and severity (stem-end rot and side rot) ([2]; listed as Phenylalanine): did not show clear protection effects
